Source: publication PMC4515242, “ESR and X-ray Structure Investigations on the Binding and Mechanism of Inhibition of the Native State of Myeloperoxidase with Low Molecular Weight Fragments” (Applied Magnetic Resonance, 2015)
pIC50: −log10 of the molar value.

Legend:
[1] = target: T1, hMPO (Homo sapiens, UniProt P05164); assay: Alpha screen assay: inhibition of MPO-initiated nitration of the Apo-A1 peptide ([…]); format: biochemical; settings: MPO 11.8 nM, pH 7.4, 45 min RT
T1 construct: purchased Biodesign A31804H
T1 sequence (P05164 49-745): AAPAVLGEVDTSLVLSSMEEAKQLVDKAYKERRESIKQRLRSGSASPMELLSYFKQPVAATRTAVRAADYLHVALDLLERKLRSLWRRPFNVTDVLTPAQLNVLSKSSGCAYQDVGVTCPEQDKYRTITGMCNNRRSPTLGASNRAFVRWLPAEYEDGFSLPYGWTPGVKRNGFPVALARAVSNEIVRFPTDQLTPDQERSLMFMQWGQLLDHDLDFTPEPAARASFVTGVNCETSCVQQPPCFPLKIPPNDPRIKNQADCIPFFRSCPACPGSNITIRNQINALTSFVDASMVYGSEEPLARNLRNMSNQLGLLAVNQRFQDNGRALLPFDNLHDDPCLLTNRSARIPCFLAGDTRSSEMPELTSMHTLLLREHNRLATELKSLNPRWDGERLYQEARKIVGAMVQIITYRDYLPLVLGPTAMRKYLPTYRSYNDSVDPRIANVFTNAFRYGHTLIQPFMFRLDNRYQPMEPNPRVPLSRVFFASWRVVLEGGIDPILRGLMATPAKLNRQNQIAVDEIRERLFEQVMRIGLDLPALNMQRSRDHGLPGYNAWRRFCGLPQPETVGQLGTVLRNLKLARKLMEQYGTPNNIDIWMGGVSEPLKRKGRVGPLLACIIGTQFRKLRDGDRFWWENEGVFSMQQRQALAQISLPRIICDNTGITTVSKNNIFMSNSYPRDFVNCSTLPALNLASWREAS
Procedure: In a typical experiment, MPO (11.8 nM final concentration) in 20 mM phosphate buffer pH 7.4, 10 % glycerol and 0.005 % gelatin (PB) is added to each well of a multi-well plate containing 20 μl PB ± compound (final concentration of DMSO = 0.9 %). The reaction is started by the addition of 20 μl PB containing 1.5 μM ApoAI peptide substrate, 300 μM diethylenetriaminepentaacetic acid (DTPA), 300 μM sodium nitrite, and 30 μM H2O2. The total reaction volume is 60 μl. The plates are incubated with agitation for 45 min at RT. The reaction is terminated with the addition of 20 μl of a stop solution containing 11.2 nM rabbit anti-nitrotyrosine antibody (final conc. of 2.8 nM), 100 μg/ml streptavidin donor beads, and 100 μg/ml protein A acceptor beads (final concentration of […]), FBS (1.6 % final concentration) in Superblock buffer. The plates are sealed, incubated in the dark for 1 h, and read on a Packard Fusion alpha plate reader.
Through a chloride independent pathway, MPO catalyzes the one electron oxidation of nitrite ions to nitrogen dioxide radicals which then […] protein amino acids like Tyrosine. We used the Apo-A1 peptide substrate ([…]) to follow the nitration of the Tyrosine (indicated by Y in the scheme below): MPO+H2O2→Compound INO2-+Compound I→NO2·+Compound II [drawing 1] Our initial experiments focused on identifying inhibitors that bind to the heme to inhibit the above catalytic action. A representative set of inhibitors is collected in Fig. 1a (strong binders, vide infra) and b (non binders, vide infra).

[2] = target: T2, native state (Fe3+) of hMPO (Homo sapiens, UniProt P05164); assay: Low temperature ESR binding assay (binding-induced g shift, Rrelative); settings: for ESR Rrelative: Rrelative = (Rbound - Rnative)/Rnative x 100, inhibitor:MPO 40:1, pH 6, 6 % DMSO, 4-7 K; for ESR Binding: class by Rrelative, inhibitor:MPO 40:1; for Δg: absolute difference between g X and g Y of the bound complex; for g X / g Y: electronic g value of the bound complex, X-band ESR, 5 K
T2 construct: purchased Athens Research and Technology
T2 sequence (P05164 49-745): T1 sequence (P05164 49-745)
Procedure: After 5-min. incubation at room temperature, the entire reaction mixture (0.235 mL) was transferred to the ESR quartz tubes. To avoid the quartz tubes breaking during the rapid freezing cycles, the ESR tubes were initially frozen in a 1:1 Isopentane-Cyclohexane mixture cooled with dry ice powder and then transferred to a liquid nitrogen Dewar to be queued up for ESR measurements. The reaction mixture contained a final concentration of 6 % DMSO. ESR spectra were recorded on a Varian E-12, X-band spectrometer equipped with an Air Products liquid helium cryostat.
The experimental g values correspond to the spin Hamiltonian pertinent to the high-spin ion (S = 5/2).1 H=DSZ2-1/3SS+1+E/DSX2-SY2+βgeS.Be where D and E are the eigen values of the axial and rhombic field components, i.e., the symmetry of the ligand (inhibitors approaching heme in this case). […] When the heme lodges inside the protein, the protein side chain amino acid (histidine) approaches the heme vicinity and either binds (axially) directly to the iron in the heme pocket. […] Thus, the fifth ligand leads to lower (rhombic) symmetries causing the signal at g ~ 6 to split. This non-tetragonal splitting of the heme is quantitated by the relationship,2 E/D=Δg/48 where ∆g represents the absolute difference between the gX and gY components. Alternatively, making use of the fact that E/D maximum value = 1/3, one can simplify the above expression as a percentage of rhombicity, R:3 R=Δg/16×100%. […] To rank-order molecules in terms of their ability to distort the heme pocket/plane environment, we used a ratio of total distortion in the bound complex w.r.t. distortion seen in the native unbound enzyme:4 Rrelative=Rbound-Rnative/Rnative×100.
From the relative rhombicities of the bound and unbound complex, a measure of the strength of binding could be derived. […] For the ease of classification, we have empirically defined those with 5 ≤ Rrelative ≥ 2 as weak binding; 15 ≥ Rrelative ≥ 10 as moderate binding; and 25 ≥ Rrelative ≥ 15 as strong binding (Table 2).

[3] = target: T3, Human Myeloperoxidase (Homo sapiens, UniProt P05164); assay: X-ray co-crystal growth by soaking MPO crystals with inhibitor; settings: crystals soaked with 50 mM inhibitor
T3 construct: purchased Lee Biosciences 426-10
T3 sequence (P05164 49-745): T1 sequence (P05164 49-745)
Procedure: Human Myeloperoxidase and co-crystals of MPO were crystallized and analyzed using methods similar to those described by Davey and Fenna. Briefly, hanging drops of 25 mg/mL MPO, 25 mM sodium acetate pH 5.0, 50 mM NaCl, 50 mM ammonium sulfate, 2 mM calcium chloride, and 3-10 % polyethylene glycol 8000 were set up at 21 °C over reservoir solutions containing 300 mM sodium chloride. Crystals of the space group P21 and having two MPO subunits per asymmetric unit grew with the aid of micro-seeding as very thin plates having a brownish orange tinge. Crystals were soaked with inhibitor compounds at a concentration of 50 mM, in a stabilizing buffer containing 18 % polyethylene glycol 8000, 56 mM ammonium sulfate, 2.2 mM calcium acetate, and 56 mM HEPES pH 7.0. Co-crystals were cryo-protected in a stabilizing buffer containing 22.2 % methylpentanediol prior to flash cooling in liquid nitrogen.
Diffraction data were collected at 100 K using Synchrotron beam line 31ID at the Advanced Photon Source (Argonne National Laboratory) and were integrated using MOSFLM v.6.2.6 [18]. […] Inhibitor binding to the MPO heme group was indicated by appropriately shaped peaks in the Fo–Fc electron density maps. The inhibitor was included in the model, and iterative cycles of manual model building with COOT [20] and restrained refinement with REFMAC v5.2.0019 [21] were used to complete the overall structure. Figures of the crystal structure were generated using PYMOL (www.pymol.org). […] The higher B-factors for the inhibitor molecules could be attributed to inhibitor occupancies of less than 1.0 or to higher degrees of thermal motion associated with the inhibitors. Lower than expected electron density peak heights were also observed for the Cl atom in the inhibitors, which could be due to the radiation damage to this X-Ray sensitive group.

[4] = ABTS radical cation decolorization assay to measure the antioxidant capacity; settings: % inhibition at 20 uM single dose, read at 734 nm after 30 min
Procedure: The assay was modeled after the published procedure. Briefly, ABTS radical cation was prepared by adding 100 μl of 70 mM K2S2O8 to 10 ml ABTS, followed by vortexing and incubating at 37 °C water bath for 2 h. […] Trolox standards are dissolved in water. The reaction is started by adding the ABTS radical cation solution to the MPO inhibitors or Trolox (final concentration 20 μM). The plate is gently shaken for 1 min and then set on a bench top at room temperature for 30 min.

Row | SMILES | pIC50 [1] | ESR Rrelative [2] | ESR Binding [2] | X ray Cocrystal result [3] | Δg [2] | g X [2] | g Y [2] | % Anti oxidant potential [4] [%]
1 | O=C(NO)c1ccccc1O [LSN13243] | 5.23 | 14.7 | Moderate (15 ≥ Rrelative ≥ 10 as moderate binding) | Yes |  |  |  | 74.9
2 | S=c1[nH]nc(-c2ccncc2)o1 [LSN19450] | 5.40 | 0 | No | No |  |  |  | 85.8
3 | O=C1CC(c2ccc(Cl)cc2)=NN1 [LSN34893] | 6.66 | 0.2 | No | No |  |  |  | 53.4
4 | NC(=O)c1n[nH]cc1O [LSN104607] | 6.18 | 0 | No | No |  |  |  | 1.56
5 | O=[N+]([O-])c1c(O)ncnc1O [LSN106019] | 3.27 | 29.2 | Strong (25 ≥ Rrelative ≥ 15 as strong binding) | Yes | 2.31 | 7.023 | 4.713 | 0
6 | Cc1cc(C(F)(F)F)c(C#N)c(=O)[nH]1 [LSN131429] | 3.86 | -28.6 | Strong (25 ≥ Rrelative ≥ 15 as strong binding) | Yes | 1.344 | 6.559 | 5.215 | 9
7 | Oc1nnc(-c2ccccc2)s1 [LSN227931] | 3.48 | 0.2 | No | No |  |  |  | 0
8 | Sc1nnc(-c2cccnc2)o1 [LSN811183] | 4.14 | 16.5 | Strong (25 ≥ Rrelative ≥ 15 as strong binding) | Yes | 2.115 | 6.924 | 4.809 | 95.9
9 | Fc1ccccc1-c1n[nH]c(=S)o1 [LSN2303506] | 4.55 | 21.7 | Strong (25 ≥ Rrelative ≥ 15 as strong binding) | Yes | 2.1759 | 6.9749 | 4.799 | 97.7

Second part, led by results:

Row | pIC50 [1] | ESR Rrelative [2] | ESR Binding [2] | X ray Cocrystal result [3] | Δg [2] | g X [2] | g Y [2] | SMILES | % Anti oxidant potential [4] [%]
10 | 3.80 | 2.4 | Weak (5 ≤ Rrelative ≥ 2 as weak binding) | No | 1.875 | 6.789 | 4.914 | O=C(O)c1n[nH]c2ccccc12 [LSN23500] | 0
11 | 6.16 | 3.3 | Weak (5 ≤ Rrelative ≥ 2 as weak binding) | No |  |  |  | Cc1c(N)n[nH]c1-c1ccccc1 [LSN27223] | 32.7
12 | 6.77 | 0.3 | No | No |  |  |  | Cc1cc(C)c2c(O)n[nH]c2n1 [LSN42503] | 82.5
13 | 6.39 | 0.2 | No | No |  |  |  | Cc1cc(O)nc2[nH]nc(O)c12 [LSN66421] | 10.4
14 | 6.40 | 0.2 | No | No |  |  |  | Oc1n[nH]c2c1CCC2 [LSN386639] | 38.2
